Assays:
Assay in all cases: relative viability (nuclei count vs DMSO), 5 days (fraction); higher = more cells survive
[1] = compound: CC1=CC(=CC=C1)NC2=NC(=CS2)C3=CC=NC=C3 + COc1cc2c(Oc3ccc(NC(=O)C4(C(=O)Nc5ccc(F)cc5)CC4)cc3F)ccnc2cc1OCCCN1CCOCC1 [Foretinib] (partner 0.25 µM)
How it was run: (§1)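 Lung cancer cell lines in 1536-well plates got either a single drug or a fixed anchor-drug dose together with five library-drug doses (not always all listed) in √10 steps, by pin tool, on the day after seeding. Nuclei were counted after 5 days, and relative viability is the treated-to-vehicle ratio of nuclei counts. Values are medians of duplicate plates.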

Masitinib + Lapatinib = compound: Cc1ccc(NC(=O)c2ccc(CN3CCN(C)CC3)cc2)cc1Nc1nc(-c2cccnc2)cs1 [Masitinib] + CS(=O)(=O)CCNCc1ccc(-c2ccc3ncnc(Nc4ccc(OCc5cccc(F)c5)c(Cl)c4)c3c2)o1 [Lapatinib] (partner 2 µM)
How it was run: as §1

Masitinib + Pemetrexed = compound: Cc1ccc(NC(=O)c2ccc(CN3CCN(C)CC3)cc2)cc1Nc1nc(-c2cccnc2)cs1 [Masitinib] + Nc1nc2[nH]cc(CCc3ccc(C(=O)N[C@@H](CCC(=O)O)C(=O)O)cc3)c2c(=O)[nH]1 [Pemetrexed] (partner 0.2 µM)
How it was run: as §1

Masitinib + OSI-027 = compound: Cc1ccc(NC(=O)c2ccc(CN3CCN(C)CC3)cc2)cc1Nc1nc(-c2cccnc2)cs1 [Masitinib] + COc1cccc2cc(-c3nc([C@H]4CC[C@H](C(=O)O)CC4)n4ncnc(N)c34)[nH]c12 [OSI-027] (partner 0.5 µM)
How it was run: as §1

Row | Cell Line | relative viability ([1]; first compound 0.08 µM) | relative viability ([1]; first compound 0.253 µM) | relative viability ([1]; first compound 0.8 µM) | relative viability ([1]; first compound 2.53 µM) | relative viability ([1]; first compound 8 µM) | relative viability (Masitinib + Lapatinib; first compound 0.01 µM) | relative viability (Masitinib + Lapatinib; first compound 0.03162 µM) | relative viability (Masitinib + Lapatinib; first compound 0.1 µM) | relative viability (Masitinib + Lapatinib; first compound 0.3162 µM) | relative viability (Masitinib + Lapatinib; first compound 1 µM) | relative viability (Masitinib + Pemetrexed; first compound 0.01 µM) | relative viability (Masitinib + Pemetrexed; first compound 0.03162 µM) | relative viability (Masitinib + Pemetrexed; first compound 0.1 µM) | relative viability (Masitinib + Pemetrexed; first compound 0.3162 µM) | relative viability (Masitinib + Pemetrexed; first compound 1 µM) | relative viability (Masitinib + OSI-027; first compound 0.01 µM) | relative viability (Masitinib + OSI-027; first compound 0.03162 µM) | relative viability (Masitinib + OSI-027; first compound 0.1 µM) | relative viability (Masitinib + OSI-027; first compound 0.3162 µM) | relative viability (Masitinib + OSI-027; first compound 1 µM)
1 | LU99A | 0.807 | 0.805 | 0.803 | 0.915 | 0.941 | 0.953 | 1.1 | 1.05 | 1.05 | 0.981 | 0.158 | 0.21 | 0.16 | 0.181 | 0.219 | 0.257 | 0.331 | 0.311 | 0.316 | 0.29
2 | LXF-289 | 0.926 | 1.03 | 0.994 | 0.938 | 0.823 | 0.757 | 0.879 | 0.938 | 0.929 | 0.894 | 0.773 | 0.973 | 0.917 | 0.971 | 0.943 | 0.747 | 0.963 | 0.794 | 0.861 | 0.767
3 | NCI-H23 | 1.03 | 0.963 | 1.03 | 0.873 | 0.895 | 0.889 | 0.829 | 1.16 | 1.19 | 1.09 | 0.795 | 0.607 | 0.699 | 0.641 | 0.626 | 0.49 | 0.572 | 0.617 | 0.575 | 0.559
4 | NCI-H322M | 0.788 | 0.924 | 0.89 | 1.01 | 0.915 | 0.55 | 0.623 | 0.573 | 0.603 | 0.53 | 0.606 | 0.594 | 0.625 | 0.615 | 0.582 | 0.64 | 0.531 | 0.605 | 0.551 | 0.514
5 | NCI-H358 | 0.699 | 0.797 | 0.671 | 0.934 | 0.566 | 0.465 | 0.479 | 0.492 | 0.494 | 0.421 | 0.16 | 0.169 | 0.167 | 0.163 | 0.178 | 0.85 | 0.762 | 0.859 | 0.665 | 0.731
6 | NCI-H460 | 0.915 | 0.894 | 0.948 | 0.924 | 0.82 | 0.996 | 1.13 | 0.921 | 1.05 | 1.26 | 0.0557 | 0.0629 | 0.0594 | 0.0647 | 0.0579 | 0.796 | 0.705 | 0.674 | 0.558 | 0.522
7 | NCI-H520 | 0.773 | 0.778 | 0.71 | 0.647 | 0.938 | 0.949 |  | 0.944 | 0.82 | 0.917 | 0.652 | 0.851 | 0.731 | 0.77 | 0.857 | 0.267 | 0.265 | 0.261 | 0.237 | 0.228
8 | NCI-H596 | 0.804 | 0.999 | 0.728 | 0.805 | 0.838 | 1.13 | 1.2 | 1.07 | 1.06 | 0.911 | 0.553 | 0.536 | 0.501 | 0.463 | 0.472 | 0.87 | 0.678 | 0.73 | 0.717 | 0.697
9 | NCI-H647 | 0.994 | 1.15 | 1.03 | 1.17 | 1.1 | 0.869 | 0.919 | 1.07 | 1.04 | 0.994 | 0.166 | 0.178 | 0.174 | 0.185 | 0.164 | 0.685 | 0.651 | 0.699 | 0.579 | 0.602
10 | NCI-H650 | 0.955 | 0.98 | 1.08 | 1.02 | 1.02 | 0.927 | 0.859 | 1.09 | 1.07 | 1.1 | 0.857 | 0.832 | 1.04 | 1.01 | 0.99 | 0.538 | 0.427 | 0.536 | 0.344 | 0.524
11 | NCI-H661 | 0.904 | 1.07 | 0.973 | 0.999 | 0.863 | 0.52 | 0.229 | 0.566 | 0.492 | 0.41 | 0.9 | 0.913 | 0.946 | 0.939 | 0.895 | 0.672 | 0.648 | 0.727 | 0.643 | 0.528
12 | NCI-H838 | 0.838 | 0.861 | 0.923 | 1.04 | 0.866 | 0.808 | 0.846 | 0.774 | 0.794 | 1.02 | 0.267 | 0.256 | 0.254 | 0.247 | 0.244 | 0.353 | 0.331 | 0.385 | 0.342 | 0.394
13 | NCI-H1355 | 0.882 | 0.749 | 0.663 | 0.685 | 0.71 | 0.691 | 0.94 | 0.807 | 0.781 | 0.951 | 0.9 | 0.92 | 1.1 | 0.853 | 1.08 | 0.345 | 0.359 | 0.42 | 0.345 | 0.37
14 | NCI-H1395 | 0.859 | 0.918 | 0.933 | 0.958 | 1 | 1.37 | 1.16 | 1.39 | 0.982 | 0.81 | 1.02 | 0.872 | 1.02 | 0.965 | 0.717 | 0.647 | 0.609 | 0.71 | 0.563 | 0.623
15 | NCI-H1437 | 1.16 | 1.21 | 1.11 | 1.27 | 1.12 | 0.661 | 0.755 | 0.798 | 0.832 | 0.728 | 0.312 | 0.355 | 0.37 | 0.325 | 0.311 | 0.768 | 0.936 | 0.899 | 0.879 | 0.858
16 | NCI-H1563 | 0.772 | 0.962 | 0.974 | 0.912 | 0.765 | 0.945 | 0.941 | 0.969 | 0.945 | 0.732 | 0.714 | 0.741 | 0.835 | 0.729 | 0.701 | 0.741 | 0.717 | 0.781 | 0.738 | 0.705
